Results on 5 compounds are retold here after ChEMBL document CHEMBL4390689 (Bioorg Med Chem Lett, 2019).

Experiment [1] deals with T1, Tubulin (Homo sapiens) (UniProt P68371+Q9H4B7+P0DPH7+P68366+Q13509+Q71U36+P04350+Q3ZCM7+P07437+P68363+Q9BQE3+Q6PEY2+Q13885+Q9BVA1+Q9BUF5). Nature of the experiment: Induction of microtubule disposition in human HeLa cells assessed as appearance of clumps of tubulin without […] at 500 pM incubated for 20 hrs measured by immunofluorescence method. The experiment is classed as cell-based.

Experiment [2] deals with HeLa. Nature of the experiment: Potency index, ratio of vinblastine effect to compound effect for Induction of mitotic arrest in human HeLa cells after 24 hrs by immunofluorescence based confocal microscopy relative to control. The experiment is classed as functional.
The species entered for experiment [3] is Bos taurus. Nature of the experiment: Inhibition of bovine microtubule polymerization at 143 pM and measured upto 5000 sec by tubulin polymerisation assay.
Experiment [4] concerns the target Tubulin beta (Homo sapiens) (UniProt P68371+Q9H4B7+Q13509+P04350+Q3ZCM7+P07437+Q13885+Q9BVA1+Q9BUF5+A6NNZ2). Nature of the experiment: Induction of microtubule disposition in human HeLa cells assessed as detection of beta tubulin isoform at 500 nM for 20 hrs measured by immunofluorescence method. Type of experiment: cell-based.
The test system of another experiment is HCT-116/VM46. Nature of the experiment: Growth inhibition of human HCT116/VM46 cells measured after 72 hrs by phosphatase assay. The experiment is classed as functional, cell-based. The note with it: HCT-116/VM46, 72 h.
For experiment [5], the species on record is Sus scrofa. Nature of the experiment: Effect on GMPCPP-induced porcine brain microtubule polymerization assessed as catalytic depolymerisation of microtubulin at 2 uM measured upto 30 mins by UV spectrophotometric method.
For experiment [6], the species on record is Bos taurus. Nature of the experiment: Inhibition of bovine microtubule polymerization at 143 uM and measured upto 5000 sec by tubulin polymerisation assay.
Experiment [7] concerns the target T1, Tubulin (Homo sapiens). Nature of the experiment: Induction of microtubule disposition in human HeLa cells assessed as appearance of multiple clumps of tubulin at 500 pM for 20 hrs measured by immunofluorescence method. The experiment is classed as cell-based.
For another experiment, the target named is Tubulin (Sus scrofa) (UniProt P02554+P02550). Nature of the experiment: Competitive displacement of BODIPY-VBL from porcine brain tubulin at 1.8 uM in presence of GTP by fluorescence method relative to control.
The species entered for experiment [8] is Sus scrofa. Nature of the experiment: Inhibition of GMPCPP-induced porcine brain microtubule polymerization at 2 uM under 4 degreeC measured upto 30 mins by UV spectrophotometric method.
For experiment [9], the target named is T1, Tubulin (Homo sapiens). Nature of the experiment: Inhibition of GFP tagged human tubulin expressed in human HeLa cells assessed as increase in the ratio of short versus medium and long microtubules after 5 hrs by TIRF super resolution microscopy. Type of experiment: cell-based.
For experiment [10], the species on record is Sus scrofa. Nature of the experiment: Inhibition of GMPCPP-induced porcine brain microtubule polymerization at 2 uM measured upto 30 mins by UV spectrophotometric method.
Experiment [11] is filed under the species Bos taurus. Nature of the experiment: Inhibition of bovine microtubule polymerization at 143 nM and measured upto 5000 sec by tubulin polymerisation assay.
For experiment [12], the species on record is Sus scrofa. Nature of the experiment: Inhibition of paclitaxel-induced porcine brain microtubule polymerization at 2 uM measured upto 30 mins by UV spectrophotometric method.
A further experiment concerns L1210. Nature of the experiment: Growth inhibition of mouse L1210 cells measured after 72 hrs by phosphatase assay. The experiment is classed as functional, cell-based. The following applies: L1210, 72 h.
Experiment [13] concerns the target T2, Tubulin alpha (Homo sapiens) (UniProt P0DPH7+P68366+Q71U36+P68363+Q9BQE3+Q6PEY2+A6NHL2+Q9NY65). Nature of the experiment: Induction of microtubule disposition in human HeLa cells assessed as detection of alpha tubulin isoform at 500 nM for 20 hrs measured by immunofluorescence method. The experiment is classed as cell-based.
The test system of experiment [14] is HeLa. Nature of the experiment: Growth inhibition of human HeLa cells measured after 72 hrs by phosphatase assay. Type of experiment: functional, cell-based.
The target of experiment [15] is T1, Tubulin (Homo sapiens). Nature of the experiment: Inhibition of global microtubule skeleton in human HeLa cells assessed as catastrophic effect on global microtubule skeleton at 75 pM incubated for 20 hrs by Hoechst/[…] staining based confocal microscopy. The experiment is classed as cell-based.
Experiment [16] has as its system HeLa. Nature of the experiment: Induction of mitotic arrest in human HeLa cells after 24 hrs by immunofluorescence based confocal microscopy relative to control. The experiment is classed as functional, cell-based.
For experiment [17], the system named is HeLa. Nature of the experiment: Induction of microtubule disposition in human HeLa cells assessed as detection of gamma tubulin isoform at 500 nM for 20 hrs measured by immunofluorescence method. Type of experiment: cell-based.
The test system of the next experiment is HCT-116. Nature of the experiment: Growth inhibition of human HCT116 cells measured after 72 hrs by phosphatase assay. The experiment is classed as functional, cell-based. The following applies: HCT-116, 72 h.
Experiment [18] addresses T1, Tubulin (Homo sapiens). Nature of the experiment: Inhibition of human GFP tagged tubulin expressed in human HeLa cells assessed as suppression of microtubule dynamics at 500 nM after 5 hrs by TIRF super resolution microscopy. Type of experiment: cell-based.
Experiment [19] is filed under the species Sus scrofa. Nature of the experiment: Inhibition of paclitaxel-induced porcine brain microtubule polymerization at 2 uM under 4 degreeC measured upto 30 mins by UV spectrophotometric method.
Experiment [20] concerns HeLa. Nature of the experiment: Induction of mitotic arrest in human HeLa cells after 24 hrs by immunofluorescence based confocal microscopy relative to vinblastine. Type of experiment: functional.
The subject of experiment [21] is HeLa. Nature of the experiment: Induction of microtubule disposition in human HeLa cells assessed as detection of gamma tubulin isoform at 10 nM for 20 hrs measured by immunofluorescence method. The experiment is classed as cell-based.
The target in experiment [22] is T2, Tubulin alpha (Homo sapiens). Nature of the experiment: Induction of microtubule disposition in human HeLa cells assessed as detection of alpha tubulin isoform at 10 nM for 20 hrs measured by immunofluorescence method. The experiment is classed as cell-based.

Activity calls are given as the source filed them. No cut-off for these calls is given here.

A word on the IC50: it is the concentration that gives 50% inhibition. A lower IC50 goes with greater potency in that assay. As for `CC[C@]1(NC(=O)N2Cc3ccc(NC(=O)c4cnccn4)cc3C2)C[C@H]2CN(CCc3c([nH]c4ccccc34)[C@@](C(=O)OC)(c3cc4c(cc3OC)N(C)[C@H]3[C@@](O)(C(=O)OC)[C@H](OC(C)=O)[C@]5(CC)C=CCN6CC[C@]43[C@@H]65)C2)C1`, the outcome (at Tubulin (Homo sapiens) [1]; in experiment [4]; at Tubulin (Homo sapiens) [7]; in experiment [13]) was Active. Moreover, the Ratio with HeLa [2] is 100. Further, the inhibition entry in the experiment listed under Bos taurus [3], in the experiment listed under Sus scrofa [10], in the experiment listed under Bos taurus [11], in the experiment listed under Sus scrofa [12] and at Tubulin (Homo sapiens) [15] was “inactive” each time. Further, the IC50 is 830 pM with HCT-116/VM46, 59 pM in the experiment with L1210, 83 pM in the experiment on HeLa [14] and 75 pM in the experiment with HCT-116. For the same compound, the outcome in the experiment listed under Sus scrofa [5] and in the experiment with HeLa [17] was inactive. Also, the inhibition entry in the experiment filed under Bos taurus [6], in the experiment listed under Sus scrofa [8], at Tubulin (Homo sapiens) [9], at Tubulin (Homo sapiens) [18] and in the experiment filed under Sus scrofa [19] was “Active” in each case. Further, the Activity was 105% on Tubulin (Sus scrofa) and “Dose-dependent effect” in the experiment with HeLa [16]. The “fold change (FC)” value in the experiment with HeLa [20] is on record as 100.
As for `CC[C@]1(O)C[C@@H]2CN(CCc3c([nH]c4ccccc34)[C@@](C(=O)OC)(c3cc4c(cc3OC)N(C)[C@H]3[C@@](O)(C(=O)OC)[C@H](OC(C)=O)[C@]5(CC)C=CCN6CC[C@]43[C@@H]65)C2)C1` [VINBLASTINE], the result in the experiment with HeLa [21] was inactive. For the same compound, the inhibition result in the experiment filed under Bos taurus [6] was “Active”. In addition, the Activity at Tubulin (Sus scrofa) was 31%; in the experiment on HeLa [16] it was “Dose-dependent effect”. Further, the midpoint of inhibition in the experiment with HeLa [14], the IC50, lay at 7800 pM. In addition, in experiment [22], the result was Active.
On to `CC[C@]1(NC(=O)N2Cc3ccccc3C2)C[C@H]2CN(CCc3c([nH]c4ccccc34)[C@@](C(=O)OC)(c3cc4c(cc3OC)N(C)[C@H]3[C@@](O)(C(=O)OC)[C@H](OC(C)=O)[C@]5(CC)C=CCN6CC[C@]43[C@@H]65)C2)C1`, for which the Activity on Tubulin (Sus scrofa) is 49%.
As for `CC[C@]1(NC(=O)N2Cc3ccc(NC(=O)c4ccncn4)cc3C2)C[C@H]2CN(CCc3c([nH]c4ccccc34)[C@@](C(=O)OC)(c3cc4c(cc3OC)N(C)[C@H]3[C@@](O)(C(=O)OC)[C@H](OC(C)=O)[C@]5(CC)C=CCN6CC[C@]43[C@@H]65)C2)C1`, the inhibition entry in the experiment filed under Bos taurus [3], in the experiment listed under Sus scrofa [10], in the experiment filed under Bos taurus [11] and in the experiment filed under Sus scrofa [12] was “inactive” each time. Further, the IC50 in the experiment with HCT-116/VM46 was 880 pM; with L1210, 62 pM; in the experiment on HCT-116, 74 pM. Further, the outcome in the experiment filed under Sus scrofa [5] was inactive. Besides, at Tubulin (Sus scrofa), the Activity turned out to be 104%. Moreover, the inhibition result in the experiment filed under Sus scrofa [8] and in the experiment filed under Sus scrofa [19] was “Active” throughout.
With `CC[C@]1(NC(=O)N2Cc3ccc(NC(=O)c4cccnn4)cc3C2)C[C@H]2CN(CCc3c([nH]c4ccccc34)[C@@](C(=O)OC)(c3cc4c(cc3OC)N(C)[C@H]3[C@@](O)(C(=O)OC)[C@H](OC(C)=O)[C@]5(CC)C=CCN6CC[C@]43[C@@H]65)C2)C1`, the inhibition result in the experiment filed under Bos taurus [3] and in the experiment filed under Bos taurus [11] was “inactive” throughout. Moreover, the values for the IC50 with HCT-116/VM46, in the experiment on L1210 and with HCT-116 were 870 pM, 59 pM and 67 pM, respectively. Besides, the Activity on Tubulin (Sus scrofa) was found to be 101%.
